Data as given in patent EP4796538A1, “NOVEL QUINOXALINE COMPOUNDS, MANUFACTURING METHOD THEREOF, AND USES THEREOF” (Gachon University of Industry-Academic Cooperation …, priority 2023, dated 2025).
Substitutions are numbered along the chain they refer to. Read-outs that look alike come from different tables or passages of the source.

Experiments:
BaF3 KIF5B-RET (V804M) = assay: Cell proliferation inhibition, Cell Counting Kit-8, Ba/F3 cell line; format: cell-based, rodent; details: Mus musculus, 72 hours incubation, read-out: Cell Viability of BaF3 Cell lines (IC50 in uM) KIF5B-RET (V804M)
Experimental: To evaluate the inhibitory activity of the compounds represented by Formula I or Formula IV according to the present invention against RET mutation-driven cell growth in the Ba/F3 cell line and against cell growth in the non-small cell lung cancer cell line A-549, the following experiment was performed.
Each cell line was seeded in a 96-well plate at 1×10^4 cells/90 µL/well, and 10 µL/well of culture medium containing each example and intermediate compound or DMSO control at 9 concentrations (1 nM to 100 µM) prepared by 3-fold serial dilutions was added to achieve a final concentration of 0 to 100 µM, followed by incubation for 72 hours in a 37°C, 5% CO2 incubator. After 72 hours of incubation, the compound-treated plates were removed, and Cell Counting Kit-8 solution was added at 10 µL/well and mixed well. The plates were then incubated for 2 hours in a CO2 incubator at 37°C, and the absorbance was measured at 450 nm using a microplate reader.
The absorbance of the experimental group relative to that of the DMSO control group was converted to % survival, and the IC50 values representing the concentration required to inhibit cell growth by 50% were calculated. As a control compound, selpercatinib, a known RET inhibitor, was treated to calculate the IC50 values.

RET(V804M)-KIF5B = target: T1, RET(V804M)-KIF5B (Homo sapiens, UniProt P07949, V804M); assay: Kinase panel inhibition, radiolabeled [γ-33P] ATP (Reaction Biology Corp); format: biochemical
T1 sequence (P07949 713-1114 V804M): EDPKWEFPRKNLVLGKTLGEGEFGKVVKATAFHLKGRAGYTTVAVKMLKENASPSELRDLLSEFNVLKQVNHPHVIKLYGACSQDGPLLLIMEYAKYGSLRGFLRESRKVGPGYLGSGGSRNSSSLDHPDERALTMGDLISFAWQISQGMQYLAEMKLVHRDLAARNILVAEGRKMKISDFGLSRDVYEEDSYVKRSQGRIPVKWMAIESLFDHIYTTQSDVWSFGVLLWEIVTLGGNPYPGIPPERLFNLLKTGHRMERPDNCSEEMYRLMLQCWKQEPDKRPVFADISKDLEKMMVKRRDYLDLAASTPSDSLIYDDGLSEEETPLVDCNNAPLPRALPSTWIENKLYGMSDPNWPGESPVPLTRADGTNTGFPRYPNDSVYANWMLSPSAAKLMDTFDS
T1 sequence (P33176 2-575 partner): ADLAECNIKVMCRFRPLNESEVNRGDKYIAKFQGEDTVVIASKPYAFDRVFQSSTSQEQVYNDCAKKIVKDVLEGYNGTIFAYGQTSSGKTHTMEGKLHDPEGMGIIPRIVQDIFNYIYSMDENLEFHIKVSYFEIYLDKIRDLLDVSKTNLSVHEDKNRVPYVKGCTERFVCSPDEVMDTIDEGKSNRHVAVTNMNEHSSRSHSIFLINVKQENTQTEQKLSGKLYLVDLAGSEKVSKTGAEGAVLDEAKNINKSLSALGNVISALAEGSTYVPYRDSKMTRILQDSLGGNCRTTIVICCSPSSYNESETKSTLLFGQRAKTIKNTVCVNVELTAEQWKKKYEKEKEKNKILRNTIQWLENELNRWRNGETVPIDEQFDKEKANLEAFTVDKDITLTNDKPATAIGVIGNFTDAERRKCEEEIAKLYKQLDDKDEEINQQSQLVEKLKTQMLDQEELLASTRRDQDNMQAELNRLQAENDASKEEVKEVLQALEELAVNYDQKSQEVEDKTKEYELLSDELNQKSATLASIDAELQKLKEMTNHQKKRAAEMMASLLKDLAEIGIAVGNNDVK

KIF5B-RET = target: T2, KIF5B-RET (Homo sapiens, UniProt P07949); assay: as above; format: biochemical; details: read-out: Enzymatic inhibitory activity (IC50) nM KIF5B-RET
T2 sequence (P07949 713-1114): T1 sequence (P07949 713-1114 V804M) with M92V
T2 sequence (P33176 2-575 partner): T1 sequence (P33176 2-575 partner)
Experimental: The inhibitory activities of the example and intermediate compounds of the present invention against a kinase panel (Reaction Biology Corp) of RET and RET mutations (RET(G810R), RET(V804M), KIF5B-RET, RET(V804M)-KIF5B, RET-CCDC6, RET-NCOA4, and RET(G810S/M918T)) were investigated. Using radiolabeled ATP ([γ-33P] ATP), the degree to which the substrate was replaced by a 33P-phosphorylated substrate was measured, and changes in kinase activity were determined from the measurement of the radiolabeled phosphorylated substrate. The example and intermediate compounds were tested at concentrations of 0.1 µM to 30 µM against ATP concentrations of 1 µM or 10 µM. The residual activity (%) of the example and intermediate compounds after inhibition against each kinase panel is shown in Tables 3 to 5 below. […]

BaF3 KIF5B-RET (G810R) = assay: Cell proliferation inhibition, Cell Counting Kit-8, Ba/F3 cell line; format: cell-based, rodent; details: Mus musculus, 72 hours incubation, read-out: Cell Viability of BaF3 Cell lines (IC50 in uM) KIF5B-RET (G810R)
RET (G810S/M918T) = target: T3, RET (G810S/M918T) (Homo sapiens, UniProt P07949, G810S/M918T); assay: Kinase panel inhibition, radiolabeled [γ-33P] ATP (Reaction Biology Corp); format: biochemical; details: compound at 10 uM, ATP 1 µM
T3 construct: purchased Reaction Biology Corp
T3 sequence (P07949 29-1114 G810S/M918T): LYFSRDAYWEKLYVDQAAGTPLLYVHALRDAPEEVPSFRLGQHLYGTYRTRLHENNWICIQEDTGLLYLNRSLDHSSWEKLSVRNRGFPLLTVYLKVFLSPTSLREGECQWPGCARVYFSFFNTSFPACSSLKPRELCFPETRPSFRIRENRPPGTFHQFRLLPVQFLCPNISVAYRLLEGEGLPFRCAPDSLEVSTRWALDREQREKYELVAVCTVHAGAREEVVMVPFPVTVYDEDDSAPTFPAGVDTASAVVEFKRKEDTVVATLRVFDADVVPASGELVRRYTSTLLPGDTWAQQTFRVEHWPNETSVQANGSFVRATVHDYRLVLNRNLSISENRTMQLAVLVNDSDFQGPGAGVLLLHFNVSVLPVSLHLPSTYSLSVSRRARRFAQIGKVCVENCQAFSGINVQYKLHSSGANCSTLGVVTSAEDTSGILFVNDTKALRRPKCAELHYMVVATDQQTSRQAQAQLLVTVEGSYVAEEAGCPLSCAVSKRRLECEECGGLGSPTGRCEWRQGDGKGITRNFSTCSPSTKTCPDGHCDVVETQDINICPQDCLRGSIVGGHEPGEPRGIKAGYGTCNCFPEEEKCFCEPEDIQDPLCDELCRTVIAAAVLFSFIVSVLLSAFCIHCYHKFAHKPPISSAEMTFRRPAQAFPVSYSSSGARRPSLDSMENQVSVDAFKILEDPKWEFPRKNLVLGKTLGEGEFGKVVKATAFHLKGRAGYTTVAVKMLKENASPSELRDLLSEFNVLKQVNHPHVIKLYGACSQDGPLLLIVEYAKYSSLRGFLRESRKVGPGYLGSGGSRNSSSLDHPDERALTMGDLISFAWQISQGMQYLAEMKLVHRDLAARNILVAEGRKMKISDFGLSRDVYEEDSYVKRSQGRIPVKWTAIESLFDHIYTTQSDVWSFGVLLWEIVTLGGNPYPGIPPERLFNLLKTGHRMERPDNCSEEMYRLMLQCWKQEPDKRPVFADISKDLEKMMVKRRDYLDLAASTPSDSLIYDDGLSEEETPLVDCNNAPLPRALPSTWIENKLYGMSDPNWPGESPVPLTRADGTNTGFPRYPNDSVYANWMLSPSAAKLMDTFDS

RET-CCDC6 (PTC1) = target: T4, RET-CCDC6 (PTC1) (Homo sapiens, UniProt P07949); assay: as above; format: biochemical; details: for remaining activity at 1 µM: compound at 1 uM, ATP 10 µM, read-out: % Enzyme Activity (relative to DMSO controls) RET-CCDC6 (PTC1); for remaining activity at 10 µM: compound at 10 uM, ATP 1 µM
T4 construct: purchased Reaction Biology Corp
T4 sequence (P07949 whole entry, looked up): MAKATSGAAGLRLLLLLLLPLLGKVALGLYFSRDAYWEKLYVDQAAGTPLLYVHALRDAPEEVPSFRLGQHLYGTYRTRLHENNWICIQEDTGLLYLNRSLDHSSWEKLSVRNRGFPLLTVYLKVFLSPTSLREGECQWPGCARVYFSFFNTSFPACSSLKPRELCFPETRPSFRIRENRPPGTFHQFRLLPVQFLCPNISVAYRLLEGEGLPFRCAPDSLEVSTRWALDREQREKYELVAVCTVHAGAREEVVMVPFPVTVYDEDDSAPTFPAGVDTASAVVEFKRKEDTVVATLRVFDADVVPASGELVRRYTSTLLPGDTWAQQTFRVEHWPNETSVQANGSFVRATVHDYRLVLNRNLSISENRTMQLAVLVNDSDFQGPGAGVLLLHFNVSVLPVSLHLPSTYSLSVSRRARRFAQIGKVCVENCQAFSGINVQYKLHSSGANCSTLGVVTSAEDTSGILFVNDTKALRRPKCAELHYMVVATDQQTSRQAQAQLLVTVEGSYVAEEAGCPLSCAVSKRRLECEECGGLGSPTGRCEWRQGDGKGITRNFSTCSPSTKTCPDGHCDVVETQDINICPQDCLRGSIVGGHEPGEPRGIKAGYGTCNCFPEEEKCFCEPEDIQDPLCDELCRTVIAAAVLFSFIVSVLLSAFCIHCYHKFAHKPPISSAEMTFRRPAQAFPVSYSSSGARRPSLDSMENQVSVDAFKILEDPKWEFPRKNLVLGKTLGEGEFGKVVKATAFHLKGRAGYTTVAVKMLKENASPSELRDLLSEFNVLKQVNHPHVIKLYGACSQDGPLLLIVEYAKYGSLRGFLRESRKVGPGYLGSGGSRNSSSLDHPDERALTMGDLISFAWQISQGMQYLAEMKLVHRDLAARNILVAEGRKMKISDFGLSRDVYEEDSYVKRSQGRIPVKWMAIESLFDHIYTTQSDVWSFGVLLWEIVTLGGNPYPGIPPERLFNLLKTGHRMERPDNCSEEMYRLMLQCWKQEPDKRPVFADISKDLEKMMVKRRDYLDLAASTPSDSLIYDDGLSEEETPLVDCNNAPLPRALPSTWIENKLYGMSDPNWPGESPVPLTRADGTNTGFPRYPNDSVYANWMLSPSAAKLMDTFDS

RET(V804M) = target: T5, RET(V804M) (Homo sapiens, UniProt P07949, V804M); assay: as above; format: biochemical; details: for remaining activity at 1 µM: compound at 1 uM, ATP 10 µM, read-out: % Enzyme Activity (relative to DMSO controls) V804M; for IC50: read-out: Enzymatic inhibitory activity (IC50) nM V804M
T5 construct: purchased Reaction Biology Corp
T5 sequence (P07949 29-1114 V804M): as the sequence (P07949 29-1114 G810S/M918T) above, with V776M, S782G, T890M counted along it

[1] = Data 1, read-out: % Enzyme Activity (relative to DMSO controls) RET (G810S/M918T) Data 1
[2] = Data 2, read-out: % Enzyme Activity (relative to DMSO controls) RET (G810S/M918T) Data 2
[3] = Data 1, read-out: % Enzyme Activity (relative to DMSO controls) RET-CCDC6 (PTC1) Data 1
[4] = Data 2, read-out: % Enzyme Activity (relative to DMSO controls) RET-CCDC6 (PTC1) Data 2

Structure (SMILES) | IC50 (BaF3 KIF5B-RET (V804M)) | IC50 (RET(V804M)-KIF5B) | IC50 (KIF5B-RET) | IC50 (BaF3 KIF5B-RET (G810R)) | remaining activity at 10 µM (RET (G810S/M918T); [1]) | remaining activity at 10 µM (RET (G810S/M918T); [2]) | remaining activity at 1 µM (RET-CCDC6 (PTC1)) | remaining activity at 10 µM (RET-CCDC6 (PTC1); [3]) | remaining activity at 10 µM (RET-CCDC6 (PTC1); [4]) | remaining activity at 1 µM (RET(V804M)) | IC50 (RET(V804M))
Nc1cc(-c2ccc(N3CC(Oc4cccc(F)c4)C3)nc2)c2nccnc2c1 [Example 1, 8-(6-(3-(3-fluorophenoxy)azetidin-1-yl)pyridin-3-yl)quinoxalin-6-amine] | 1.02 µM | 6.71 nM | 2.2 nM | 0.88 µM | 0.22% | -0.72% | 0.01% | 0.75% | 0.52% | 1.72% | 4.2 nM
CCNc1cc(-c2ccc(N3CC(Oc4cccc(F)c4)C3)nc2)c2nccnc2c1 [Example 3, N-ethyl-8-(6-(3-(3-fluorophenoxy)azetidin-1-yl)pyridin-3-yl)quinoxalin-6-amine] | 0.12 µM | 1.36 nM | < 0.5 nM | 1.09 µM | -0.47% | -0.51% | 18.6% | 0.73% | 0.91% | 0.63% | 0.78 nM
